This passage reports IC50 and melting point results from patent US6569894B1, “Arylalkylbenzofuran derivatives as melatonergic agents” (Bristol-Myers Squibb Company, priority 2001, dated 2003).

Data set [1] has as its target T1, ML1b receptor (Homo sapiens, UniProt P49286).
T1 construct: expressed in transfected cells
T1 sequence (P49286 1-362): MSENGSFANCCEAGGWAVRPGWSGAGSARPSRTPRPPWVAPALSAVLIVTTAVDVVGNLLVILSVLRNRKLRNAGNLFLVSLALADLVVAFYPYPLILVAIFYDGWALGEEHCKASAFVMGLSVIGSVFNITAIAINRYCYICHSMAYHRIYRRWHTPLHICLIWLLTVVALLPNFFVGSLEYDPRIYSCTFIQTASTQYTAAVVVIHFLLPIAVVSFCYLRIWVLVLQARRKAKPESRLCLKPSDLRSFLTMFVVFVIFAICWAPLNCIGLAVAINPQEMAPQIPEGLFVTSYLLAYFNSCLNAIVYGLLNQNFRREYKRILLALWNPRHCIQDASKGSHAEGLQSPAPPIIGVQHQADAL
In words: Melatonergic receptor binding activity, 2-[125I]-iodomelatonin, ML1b. Particulars: 37° C. for 1 hour. How it is done: (§1) Melatonergic Receptor Binding Activity
(§2) (a) TME=50 mM Tris buffer containing 12.5 mM MgCl2, and 2 mM EDTA, pH 7.4 at 37° C., with concentrated HCl.
(§3) (b) Wash buffer: 20 mM Tris base containing 2 mM MgCl2, pH 7.4 at room temperature.
(§4) (c) 10^−4 M melatonin (10^−5 M final concentration).
(§5) (d) 2-[^125I]-iodomelatonin, […] final concentration.
(§6) 3. Incubation: 37° C. for 1 hour. Reaction is terminated by filtration. Filters were washed 3 times.
(§7) The compounds of the present invention have affinity for receptors of the endogenous pineal hormone, melatonin, as determined in a receptor binding assays described above in Tables I to V for the ML1a and ML1b (human) receptors. Melatonin is involved in the regulation of a variety of biological rhythms and exerts its biological effects via interaction with specific receptors. There is evidence that administration of melatonin agonists are of clinical utility in the treatment of various conditions regulated by melatonin activity. Such conditions include depression, jet-lag, work-shift syndrome, sleep disorders, glaucoma, some disorders associated with reproduction, cancer benign prostatic hyperplasia, immune disorders and neuroendocrine disorders.

Data set [2] has as its target T2, ML1a receptor (Homo sapiens, UniProt P48039).
T2 construct: expressed in transfected cells; pcDNA3)
In words: Melatonergic receptor binding activity, 2-[125I]-iodomelatonin, ML1a. The following applies: membrane homogenates of NIH-3T3 cells, 37° C. for 1 hour. How it is done:
as §1, §2, §3, §4, §5
2. Membrane Homogenates: The melatonin ML1α receptor cDNA was subcloned into pcDNA3 and introduced into NIH-3T3 cells using Lipofectamine. Transformed NIH-3T3 cells resistant to geneticin (G-418) were isolated, and single colonies expressing high levels of 2-[^125I]-iodomelatonin binding were isolated. Cells are maintained in DMEM supplemented with 10% calf serum and G-418 (0.5 g/liter). Cells are grown to confluency in T-175 flasks, scraped using Hank's balanced salt solution, and frozen at −80° C. For preparing membrane homogenates, pellets are thawed on ice, and re-suspended in TME buffer in the presence of 10 μg/ml aprotinin and leupeptin, and 100 μM phenylmethylsulfonylfluoride. The cells were then homogenized using a dounce homogenizer, and centrifuged. The resulting pellet was re-suspended with dounce homogenizer in TME (supplemented with the above protease inhibitors) and frozen. On the day of assay, a small aliquot was thawed on ice and re-suspended in the ice cold TME (1:50-1:100 v/v) and held on ice until assayed.
as §6, §7

T2 sequence (P48039 whole entry): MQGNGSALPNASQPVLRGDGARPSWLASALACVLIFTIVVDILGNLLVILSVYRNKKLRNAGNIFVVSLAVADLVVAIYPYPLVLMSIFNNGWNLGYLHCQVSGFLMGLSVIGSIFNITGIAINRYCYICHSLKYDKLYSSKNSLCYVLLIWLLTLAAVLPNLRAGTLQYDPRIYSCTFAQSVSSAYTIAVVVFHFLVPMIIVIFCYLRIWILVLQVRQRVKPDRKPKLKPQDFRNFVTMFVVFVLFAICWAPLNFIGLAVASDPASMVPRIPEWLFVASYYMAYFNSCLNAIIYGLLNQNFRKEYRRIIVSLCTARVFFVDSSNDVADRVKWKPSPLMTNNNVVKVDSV

`CCNC(=O)NC[C@@H]1C[C@H]1c1cccc2c1C[C@@H](CCCCc1ccccc1)O2` [Example 47, N-({2-[(2R)-2-(4-Phenylbutyl)(2,3-dihydrobenzo[b]furan-4-yl)]-(1R,2R)cyclopropyl}methyl)(ethylamino)carboxamide] displayed a melting point of 69 to 70 °C. The same compound gave an IC50 in data set [1] (Table V) of 10 to 250 nM. The compound further returned an IC50 in data set [2] (Table V) of 10 to 250 nM.

`CCNC(=O)NCC1CC1c1c(Cl)ccc2c1CC(CCCCc1ccccc1)O2` [Example 48, N-({2-[2R)-5-Chloro-2-(4-phenylbutyl)(2,3-dihydrobenzo[b]furan-4-yl)]-(1R,2R)cyclopropyl}methyl)(ethylamino)carboxamide] had a melting point of 126 to 128 °C. In addition, the half-inhibitory concentration (IC50) in data set [1] (Table V) lay in the range of 10 to 250 nM. In data set [2] (Table V), this compound showed a concentration for half-maximal inhibition (IC50) of 10 to 250 nM.

`O=C(NCCCc1cccc2oc(CCCCc3ccccc3)cc12)C1CC1` [Example 7, N-[3-[2-(4-Phenylbutyl)benzofuran-4-yl]propyl]cyclopropanecarboxamide]: the melting point was in the range of 70 to 71 °C. In data set [1] (Table II), this compound registered a concentration for half-maximal inhibition (IC50) of 10 to 250 nM. In data set [2] (Table II), this compound came in with an IC50 of 10 to 250 nM.

The compound `O=C(NCCCc1cccc2c1C[C@H](CCCCc1ccccc1)O2)C1CC1` (stereo in doubt) [Example 5, N-[3-[2-(4-Phenylbutyl)-2,3-dihydrobenzofuran-4-yl]propyl]cyclopropanecarboxamide] yielded a melting point of 63 to 64 °C. In addition, the 50% inhibitory concentration (IC50) in data set [1] (Table I) fell in the range of 10 to 250 nM. The same compound had a concentration for half-maximal inhibition (IC50) in data set [2] (Table I) of less than 10 nM.

`CC(=O)NC[C@@H]1C[C@H]1c1cccc2c1C[C@@H](CCCCc1ccccc1)O2` [Example 42, N-({2-[(2R)-2-(4-Phenylbutyl)(2,3-dihydrobenzo[b]furan-4-yl)]-(1R,2R)cyclopropyl}methyl)acetamide] yielded a melting point of 65 to 66 °C. The compound also returned an IC50 in data set [1] (Table V) of less than 10 nM. The compound also had a half-inhibitory concentration (IC50) in data set [2] (Table V) of less than 10 nM.

With `CC(=O)NC[C@H]1C[C@@H]1c1cccc2oc(CCCCc3ccccc3)cc12` (single isomer, unassigned) [Example 29], the results for the IC50 in data set [1] (Table IV) and in data set [2] (Table IV) were 10 to 250 nM and less than 10 nM, respectively.

For `O=C(NC[C@H]1C[C@@H]1c1cccc2oc(CCCCc3ccccc3)cc12)C1CC1` (racemic) [Example 34, N-({(1R,2R)-2-[2-(4-Phenylbutyl)benzo[b]furan-4-yl]-cyclopropyl}methyl)cyclopropylcarboxamide], the IC50 in data set [1] (Table IV) and in data set [2] (Table IV) was 10 to 250 nM in each case.

In the case of `O=C(NC[C@@H]1C[C@H]1c1cccc2c1C[C@@H](CCCCc1ccccc1)O2)C1CC1` [Example 46, N-({2-[(2R)-2-(4-Phenylbutyl)(2,3-dihydrobenzo[b]furan-4-yl)]-(1R,2R)cyclopropyl}methyl)cyclopropylcarboxamide], the results for the IC50 in data set [1] (Table V) and in data set [2] (Table V) were 10 to 250 nM and less than 10 nM, respectively.

As for `CCCC(=O)NCCCc1cccc2oc(CCCCc3ccccc3)cc12` [Example 11, N-[3-[2-(4-Phenylbutyl)benzofuran-4-yl]propyl]butyramide], the IC50 in data set [1] (Table II) and in data set [2] (Table II) was 10 to 250 nM each time.

In turn, `CC(=O)NCCCc1cccc2c1C[C@H](CCCCc1ccccc1)O2` (stereo in doubt) [Example 1, N-[3-[2-(4-Phenylbutyl)-2,3-dihydrobenzofuran-4-yl]propyl]acetamide] had a melting point of 40 to 41 °C. For the same compound, in data set [1] (Table I), the IC50 was in the range of 10 to 250 nM. Further, in data set [2] (Table I), the IC50 is less than 10 nM.

Consider “N-3-(2-(2-Phenyleth-1-yl)benzofuran-3-yl)prop-1-yl Butyramide [Example 25]”, for which the IC50 in data set [1] (Table III) and in data set [2] (Table III) was 10 to 250 nM in each case.

For “N-3-(2-(2-Phenyleth-1-yl)benzofuran-3-yl)prop-1-yl Acetamide [Example 23]”, the half-inhibitory concentration (IC50) in data set [1] (Table III) and in data set [2] (Table III) was 10 to 250 nM in each case.

For `CC(C)C(=O)NCCCc1cccc2c1C[C@H](CCCCc1ccccc1)O2` (stereo in doubt) [Example 4, N-[3-[2-(4-Phenylbutyl)-2,3-dihydrobenzofuran-4-yl]propyl]-2-methylpropionamide], the IC50 in data set [1] (Table I) is 10 to 250 nM; in data set [2] (Table I) it was less than 10 nM.

As for “N-3-(2-(3-Phenylprop-1-yl)benzofuran-3-yl)prop-1-yl Acetamide [Example 19]”, the IC50 was 10 to 250 nM in data set [1] (Table III) and less than 10 nM in data set [2] (Table III).

Take `CCC(=O)NCCCc1cccc2oc(CCCCc3ccccc3)cc12` [Example 10, N-[3-[2-(4-Phenylbutyl)benzofuran-4-yl]propyl]propionamide]: the IC50 in data set [1] (Table II) is 10 to 250 nM; in data set [2] (Table II), less than 10 nM.

For “N-3-(2-(2-Phenyleth-1-yl)benzofuran-3-yl)prop-1-yl Propanamide [Example 24]”, the half-maximal inhibitory concentration (IC50) in data set [1] (Table III) and in data set [2] (Table III) was 10 to 250 nM in each case.

`CCC(=O)NC[C@H]1C[C@@H]1c1cccc2oc(CCCCc3ccccc3)cc12` (racemic) [Example 31, N-({(1R,2R)-2-[2-(4-Phenylbutyl)benzo[b]furan-4-yl]-cyclopropyl}methyl)propanamide]: the IC50 in data set [1] (Table IV) and in data set [2] (Table IV) was less than 10 nM in each case.

Turning to `CC(=O)NCCCc1cccc2oc(CCCCc3ccc(C(F)(F)F)cc3)cc12` [Example 15, N-[3-[2-[4-(4-Trifluoromethylphenyl)butyl]benzofuran-4-yl]propyl]-acetamide], the concentration for half-maximal inhibition (IC50) in data set [1] (Table III) was greater than 250 nM; in data set [2] (Table III), 10 to 250 nM.

For `CC(C)C(=O)NCCCc1cccc2oc(CCCCc3ccc(C(F)(F)F)cc3)cc12` [Example 18, N-[3-[2-[4-(4-Trifluoromethylphenyl)butyl]benzofuran-4-yl]propyl]-isobutyramide], the IC50 in data set [1] (Table III) is greater than 250 nM; in data set [2] (Table III), 10 to 250 nM.

In the case of `O=C(NCCCc1cccc2oc(CCCCc3ccc(C(F)(F)F)cc3)cc12)C1CC1` [Example 13, N-[3-[2-[4-(4-Trifluoromethylphenyl)butyl]benzofuran-4-yl]propyl]-cyclopropane Carboxamide], the IC50 in data set [1] (Table III) and in data set [2] (Table III) was greater than 250 nM each time.

What is called IC50 is the point on the concentration scale where inhibition reaches its midpoint. Read a high IC50 as lower potency. Usually melting point stands for the temperature of the solid-liquid transition.
